Laboratory results taken from patent US20070072815A1, “Methods and kits to increase the efficiency of oligonucleotide-directed nucleic acid sequence alteration” (priority 2004, published 2007).
Entries after “also recorded” stand apart in the source; their conditions may differ.

Experiments:
[1] = system: mutant eGFP gene in DLD-1-1 cells; assay: eGFP gene correction (oligonucleotide-directed sequence alteration) in DLD-1-1 cells, FACS readout; format: cell-based; conditions: for effect on correction when added after electroporation: recovery period, AraC 2-48 hrs, aphidicolin 6 μM at 2, 6 and 24 hrs
Protocol: Cell line and culture conditions: DLD-1 cells are obtained from ATCC (American Type Cell Culture, Manassas, Va.). DLD-1 integrated clone 1 (DLD-1-1) is obtained by integration of the vector pEGFP-N3 containing a single point mutation (TAG) in the eGFP gene, as described in copending U.S. patent application Ser. No. 10/986,418, filed Nov. 10, 2004 (“Mammalian Cell Lines for Detecting, Monitoring, and Optimizing Oligonucleotide-Mediated Chromosomal Sequence Alteration”). Cells are grown in RPMI 1640 medium with 2 mM glutamine, 4.5 g/L glucose, 10 mM HEPES, 1 mM sodium pyruvate and supplemented with 10% FBS. Cells are maintained at 5% CO2, 37° C. and under selection in 200 μg/ml G418 (Gibco, Invitrogen Co., Carlsbad, Calif.).
eGFP gene correction: Cells grown in complete medium supplemented with 10% FBS are trypsinized and harvested by centrifugation. The cell pellet is resuspended in serum-free medium at a density of 1×10^6 cells/100 μl and transferred to a 4 mm gap cuvette (Fisher Scientific, Pittsburgh, Pa.). The oligonucleotide is then added at a concentration of 4 μM and the cells are electroporated (LV, 250V, 13 msec, 2 pulses, 1 second interval) using a BTX ECM830 apparatus (BTX, Holliston, Mass.). The cells are then transferred to a 60 mm dish containing fresh medium supplemented with 10% FBS and incubated for 48 hrs at 37° C. before harvesting for FACS analysis.
The percentage of converted cells in a whole population is then calculated by CellQuest™ (Becton Dickinson) and GFP/PI programs. The correction efficiency is determined by dividing the number of eGFP positive cells by the number of cells analyzed in each experiment (usually 50,000 cells). Each clone is tested three times to determine the standard deviation of the correction efficiency, with standard deviation calculated using Microsoft Excel.
The experimental strategy involves the introduction of oligonucleotides into DLD-1-clone 1 cells by electroporation followed by phenotypic readout of the corrected eGFP gene, 48 hours later. The correcting oligonucleotide (EGFP3S/72NT) is 72 bases in length (72-mer), complementary to the non-transcribed strand of the mutant eGFP gene but designed to create a single mismatch in the third base of codon 67 (see FIG. 1A). It directs conversion of a TAG→TAC codon which enables phenotypic expression of eGFP, which can be detected by FACS. FIG. 1B outlines the sequence of the target gene, the 72-mer and a nonspecific 74-mer used as a control.
Oligonucleotide-Directed Sequence Alteration: The resulting synchronized populations of cells, and asynchronous controls, are grown in complete medium supplemented with 10% FBS and trypsinzed and harvested by centrifugation at 1500 rpm for 5 minutes. The cell pellet is resuspended in fresh serum-free medium at a density of 2×10^6 cells/100 μl. The entire cell suspension is mixed with 20 μg of EGFP/72NT and transferred into a 4 mm gap cuvette (Fisher Scientific, Pittsburgh, Pa., USA) followed by electroporation with two 250V pulses, each 13 ms in duration, with one second between pulses, unipolar.
Cells are incubated at room temperature for 30 min. […] Frequency of converted cells are calculated by CellQuest™ and GFP/PI programs.
Double Thymidine Block: Cells are synchronized in G1 or at the G1/S border by a double thymidine block. Twenty-four hours prior to the addition of any agent (HU, etc.), cells are plated at a density of 0.5×10^6 cells per 100 mm dish, followed by incubation in 2 mM thymidine (Sigma) for 16 hrs, washed and released in fresh medium for 10 hrs, then incubated in 2 mM thymidine for an additional 15 hrs.
FACS is then used to analyze 50,000 cells from each population to determine the percentage of cells expressing functional eGFP, as described in Example 1.

DLD-1-1 cells [2] = assay: Cell cycle analysis (DNA content by FACS), cells in S phase; format: cell-based
Protocol: (§1) For cell cycle analysis, 1×10^6 cells are plated 24 hrs before the treatment with drugs and after 24 hrs of treatment, cells are trypsinized, resuspended in 300 μl cold PBS and fixed by adding 700 μl cold ethanol. Cells are then resuspended in 1 ml of PBS containing 500 µg/ml RNaseA and […] propidium iodide and analyzed for DNA content.
The effect of cell cycle on the efficiency of ODSA is assessed by synchronizing a population of DLD-1-1 cells with mimosine, which arrests cells in early S phase, and serum starvation. Cells are seeded at a density of 0.8×10^6 per 100 mm dish, attached for 20 hours and then cultured in RMPI-1640 medium containing 0.2% fetal bovine serum (FBS). These cells are grown for 48 hours followed by treatment with 0.1 mM mimosine (Sigma, St. Louis, Mo., USA) for 20 hours. Cell are washed twice with PBS and released at various times into fresh medium complemented with 10% FBS before electroporation. Cells are rinsed once with PBS, trypsinized and harvested by centrifugation and resuspended in PBS containing 10 μg/ml propidium iodide, 0.03% Triton-100 and 1 mg/ml RNase. Cells are incubated at room temperature for 1 hour before the measurement of DNA content by FACSCalibur™ flow cytometer. The percentage of cells at various stages of the cell cycle is determined by ModFit L™ software (Verity Software House, Inc., Topsham, Me., USA).
(§2) The resulting cells are then either analyzed by FACS, or the percentage of cells in S phase is determined by BrdU incorporation. FIG. 8 presents the results of both sets of experiments.

[3] = system: α-galactosidase A (GLA) activity in Fabry's cell line DMN-1; assay: GLA activity in Fabry's cells after ODSA; format: cell-based, human
Text: Cell line DMN-1, a human fibroblast cell line derived from a human patient with Fabry's disease, is obtained from the National Institutes of Health (NIH). These cells are used to measure the efficiency of correction of a mutant allele of α-galactosidase A (GLA) using methods of the present invention. The specific disease-causing mutation in the Fabry's cell line used herein is A143P, caused by a G→C mutation in the gene. See Branton et al., Medicine (Baltimore) (2002) 81(2): 122-38.
All four oligonucleotides are used to effect ODSA substantially as described in Example 1, with the exception that cells are transfected with oligonucleotides, rather than electroporated. Oligos are added at 5 μg, 10 μg or 30 μg per reaction. After ODSA is performed, cells are cultured and assayed for GLA activity according to the method of Brady, as described in Medin et al., Proc. Natl. Acad. Sci. (USA) (1996) 93:7917-22, the disclosure of which is incorporated herein by reference in its entirety. The GLA activity is used as a measure of gene correction by comparing the activities in treated versus untreated cultures. The correction efficiency is subsequently confirmed by sequencing of the locus of mutation in a number of treated cells.
[…] Unlike the experiments involving correction of eGFP in DLD-1-1 cells described in Example 1, however, certain of the agents (VPA, caffeine, TSA) in the experiments in this example are not added before transfection, but are instead added only after transfection, during the recovery period.
The means of introducing oligonucleotide into the target cells also differs from previous examples, with transfection in the presence of the transfection enhancing agent FuGENE™ 6 (FG) (Roche Diagnostics Corp., Indianapolis, Ind., USA) being used rather than electroporation. Each transfection reaction includes 100 μl of target cells and 12 μl of FG unless otherwise indicated, despite the fact that FG is not explicitly listed for each datapoint in the relevant figures. Otherwise the procedures used in the DLD-1-1 experiments and the Fabry's experiments are similar.
The results of a further series of experiments are shown at FIG. 15D, where the data are presented as GLA activity as nanomolar (nM) concentration of the product of the GLA assay generated per hour per unit protein concentration (as are the data in FIGS. D and E).

DLD-1-1 cells [4] = assay: BrdU incorporation (actively replicating forks); format: cell-based; conditions: for BrdU uptake (cells actively incorporating DNA bases): 24 hour treatment, 500 μM ddC, ddI or AraC (FIG. 17B)
Protocol: as §1, §2
As stated above, the lack of stimulation observed in cells treated with AraC could be explained by the reduced number of cells passing through S phase or the absence of actively replicating forks. If true, we might predict that a rise in the gene repair frequency would appear if the cells are released from the AraC block and replication forks are allowed to restart prior to the electroporation of the oligonucleotide. We test this prediction by treating the cells with AraC for 24 hrs and then releasing them by washing out the drug at specific times. We measure the level of BrdU incorporation at the time of electroporation and evaluate the frequency of correction 48 hrs later.

[5] = serum starvation + mimosine, 8 hours after release
[6] = 24 hour treatment, 500 μM ddC, ddI or AraC (FIG. 17A)
[7] = 2-5 μM VPA in the recovery phase

NC(Cn1ccc(=O)c(O)c1)C(=O)O (stereo not drawn) [mimosine]
increase of correction efficiency versus asynchronous cells [1, 5]: 2.5 fold
cells in S phase (DLD-1-1 cells [2]; serum starvation + 0.1 mM mimosine, 8 hours after release): 86%
increase of proportion of cells in S phase versus asynchronous cells (DLD-1-1 cells [2]; [5]): 2.5 fold

C[C@@]1(CO)[C@H](O)CC[C@@]2(C)[C@H]1CC[C@H]1C[C@@H]3C[C@@]12CC[C@]3(O)CO [Aphidicolin, aphidicolin]
effect on correction when added after electroporation [1]: low level of correction

CC(/C=C/C(=O)NO)=C\[C@@H](C)C(=O)c1ccc(N(C)C)cc1 [TSA, trichostatin A]
effect on ddC-enhanced GLA activity ([3]; synchronized cells, 500 μM ddC, 4 mM caffeine or 100 ng/ml TSA during recovery period): eliminate the ability of 500 μM ddC to enhance GLA activity

COc1cc([C@@H]2c3cc4c(cc3[C@@H](O[C@@H]3O[C@@H]5CO[C@@H](C)O[C@H]5[C@H](O)[C@H]3O)[C@H]3COC(=O)[C@H]23)OCO4)cc(OC)c1O [VP16, 4′-demethylepipodophyllotoxin-9-(4,6-O-ethylidene-beta-D-glucopyranoside)]
percentage of cells in S phase by BrdU (DLD-1-1 cells [4]; 24 hours, 1 mM HU or 3 μM VP16): 56%
cells in S-phase (DLD-1-1 cells [2]; 24 hours, 1 mM HU or 3 μM VP16, FACS analysis): 56%

CC[C@@]1(O)C(=O)OCc2c1cc1n(c2=O)Cc2cc3ccccc3nc2-1 [CPT, camptothecin]
effect on correction efficiency ([1]; CPT pretreatment at 30-100 nM): triples correction efficiency
GLA activity versus no treatment control ([3]; 7.5 nM CPT during recovery): approximately six-fold
GLA activity ([3]; 7.5 nM CPT during recovery, 49T/gg): 26.84 nM product per hour per unit p
effect on GLA activity ([3]; CPT 7.5 nM (FIG. 15D summary)): more than doubles GLA activity

Nc1ccn([C@@H]2O[C@H](CO)[C@@H](O)[C@@H]2O)c(=O)n1 [AraC, 1-β-D-arabinofuransylcytosine]
effect on correction levels ([1]; AraC 5 μM to 250 μM, 24 hrs before electroporation): no enhancement in correction levels; also recorded: significantly insignificant effect
time post release at which gene repair activity reaches maximal level ([1]; AraC 24 hrs, then washed out before electroporation): 8 h
effect on correction when added after electroporation [1]: correction levels drop substantially
BrdU uptake (cells actively incorporating DNA bases) (DLD-1-1 cells [4]): essentially zero
time after release at which elevation in BrdU incorporation is observed (DLD-1-1 cells [4]; AraC 24 hrs, then washed out): ≤ 2 h
cells in S phase (DLD-1-1 cells [2]; [6]): 26%
reduction in S phase cells (DLD-1-1 cells [2]; AraC at 20 μM and 250 μM): 9%

COc1cc(C=O)ccc1O [vanillin]
effect on correction efficiency ([1]; 1 mM vanillin, before or after electroporation, with or without ddC): no effect on correction efficiency; also recorded: does not inhibit gene repair activity
effect on ddC-stimulated gene repair ([1]; inhibitor added with ddC before electroporation (FIG. 20)): statistically unchanged

O=c1[nH]cnc2c1ncn2[C@H]1CC[C@@H](CO)O1 [ddI, dideoxyinosine]
effect on gene correction ([1]; various dosages of ddI): no significant increase in gene correction; also recorded: statistically insignificant effect
BrdU uptake (cells actively incorporating DNA bases) (DLD-1-1 cells [4]): no difference from non-treated cells
cells in S phase (DLD-1-1 cells [2]; [6]): does not show an increase in the number of cells in S phase

CCCC(CCC)C(=O)O [VPA, valproic acid]
GLA activity versus untreated cells ([3]; 5 μM VPA during recovery period): over 20 fold
GLA activity ([3]; 5 μM VPA during recovery period after transfection with 49T/gg): 98.71 nM product per hour per unit p
GLA activity over untreated cells [3, 7]: 25 fold
GLA activity versus cells treated identically without VPA [3, 7]: more than eight-fold
